Data on 15 compounds can be found in ChEMBL document CHEMBL4414554, “Colocalization Strategy Unveils an Underside Binding Site in the Transmembrane Domain of Smoothened Receptor” (J Med Chem, 2019).

The source made the active and inactive calls. The rule behind the calls is not given here.

Experiment [1] has as its target Protein smoothened (Mus musculus) (UniProt P56726). The experiment can be described thus: (§1) Antagonist activity at SMO in mouse NIH/3T3 cells harboring Gli-responsive firefly luciferase gene assessed as inhibition of SAG-induced response preincubated for 2 hrs followed by SAG addition and measured after 24 hrs by Bright-Glo luciferase assay. It is filed as cell-based.

For experiment [2], the target named is T1, Protein smoothened (Homo sapiens, UniProt Q99835). The experiment can be described thus: Displacement of BODIPY-LY from SMO (unknown origin) expressed in HEK293F cells measured after 15 mins by flow cytometric analysis. The class given is cell-based. Background: Flow cytometry measures light scatter and fluorescence of single cells or particles in a stream.

Experiment [3] concerns the target Protein smoothened (Mus musculus, UniProt P56726). The experiment is described as §1. The class given is cell-based.
Experiment [4] has as its target T1, Protein smoothened. Description: Binding affinity to recombinant SMO Gly527 residue (unknown origin) assessed as modification of INLFAMFGTGIAMSTWVWTKATLLIWRR peptide at 20 uM preincubated for 3 hrs followed by UV irradiation for 15 mins by MS/MS analysis.
The target in experiment [5] is T1, Protein smoothened. The experiment can be described thus: Binding affinity to recombinant SMO Glu158 residue (unknown origin) at 20 uM preincubated for 3 hrs followed by UV irradiation for 15 mins by MS/MS analysis.
Experiment [6] has as its target T1, Protein smoothened. The experiment can be described thus: Binding affinity to recombinant SMO Thr349 residue (unknown origin) at 20 uM preincubated for 3 hrs followed by UV irradiation for 15 mins by MS/MS analysis.
The target of experiment [7] is T1, Protein smoothened. The experiment can be described thus: Binding affinity to recombinant SMO Ala345 residue (unknown origin) at 20 uM preincubated for 3 hrs followed by UV irradiation for 15 mins by MS/MS analysis.
Experiment [8] addresses T1, Protein smoothened. The experiment can be described thus: Binding affinity to recombinant SMO Gly529 residue (unknown origin) assessed as modification of INLFAMFGTGIAMSTWVWTKATLLIWRR peptide at 20 uM preincubated for 3 hrs followed by UV irradiation for 15 mins by MS/MS analysis.
Experiment [9] addresses T1, Protein smoothened. The experiment can be described thus: Binding affinity to recombinant SMO His103 residue (unknown origin) at 20 uM preincubated for 3 hrs followed by UV irradiation for 15 mins by MS/MS analysis.
The target of experiment [10] is T1, Protein smoothened. Description: Binding affinity to recombinant SMO Thr528 residue (unknown origin) assessed as modification of INLFAMFGTGIAMSTWVWTKATLLIWRR peptide at 20 uM preincubated for 3 hrs followed by UV irradiation for 15 mins by MS/MS analysis.
Experiment [11] addresses T1, Protein smoothened. The experiment can be described thus: Binding affinity to recombinant human SMO at 0.1 to 20 uM preincubated for 1 hr followed by 365 nm UV irradiation for 20 mins and subsequent addition of TAMRA-N3 measured after 1 hr by fluorescence-based SDS-PAGE analysis.
Experiment [12] concerns the target T1, Protein smoothened. Description: Binding affinity to recombinant SMO Leu498 residue (unknown origin) at 20 uM preincubated for 3 hrs followed by UV irradiation for 15 mins by MS/MS analysis.
In experiment [13] the target is T1, Protein smoothened. The experiment can be described thus: Binding affinity to recombinant SMO Lys510 residue (unknown origin) at 20 uM preincubated for 3 hrs followed by UV irradiation for 15 mins by MS/MS analysis.
Experiment [14] addresses T1, Protein smoothened. Description: Binding affinity to recombinant SMO Glu135 residue (unknown origin) at 20 uM preincubated for 3 hrs followed by UV irradiation for 15 mins by MS/MS analysis.
Experiment [15] addresses T1, Protein smoothened. Description: Binding affinity to recombinant SMO Lys186 residue (unknown origin) at 20 uM preincubated for 3 hrs followed by UV irradiation for 15 mins by MS/MS analysis.
For experiment [16], the target named is T1, Protein smoothened. Description: Binding affinity to recombinant SMO Glu518 residue (unknown origin) assessed as modification of NRPSLLVEK (511 to 519 residue) at 20 uM preincubated for 3 hrs followed by UV irradiation for 15 mins by MS/MS analysis.

The term IC50 denotes the concentration that inhibits the measured activity by half. As usually defined, the Ki is a measure of affinity in units of concentration, obtained from inhibition or displacement. Low readings indicate tighter binding, high ones weaker binding.

Sequence of Protein smoothened (Mus musculus, UniProt P56726) (P56726 whole entry): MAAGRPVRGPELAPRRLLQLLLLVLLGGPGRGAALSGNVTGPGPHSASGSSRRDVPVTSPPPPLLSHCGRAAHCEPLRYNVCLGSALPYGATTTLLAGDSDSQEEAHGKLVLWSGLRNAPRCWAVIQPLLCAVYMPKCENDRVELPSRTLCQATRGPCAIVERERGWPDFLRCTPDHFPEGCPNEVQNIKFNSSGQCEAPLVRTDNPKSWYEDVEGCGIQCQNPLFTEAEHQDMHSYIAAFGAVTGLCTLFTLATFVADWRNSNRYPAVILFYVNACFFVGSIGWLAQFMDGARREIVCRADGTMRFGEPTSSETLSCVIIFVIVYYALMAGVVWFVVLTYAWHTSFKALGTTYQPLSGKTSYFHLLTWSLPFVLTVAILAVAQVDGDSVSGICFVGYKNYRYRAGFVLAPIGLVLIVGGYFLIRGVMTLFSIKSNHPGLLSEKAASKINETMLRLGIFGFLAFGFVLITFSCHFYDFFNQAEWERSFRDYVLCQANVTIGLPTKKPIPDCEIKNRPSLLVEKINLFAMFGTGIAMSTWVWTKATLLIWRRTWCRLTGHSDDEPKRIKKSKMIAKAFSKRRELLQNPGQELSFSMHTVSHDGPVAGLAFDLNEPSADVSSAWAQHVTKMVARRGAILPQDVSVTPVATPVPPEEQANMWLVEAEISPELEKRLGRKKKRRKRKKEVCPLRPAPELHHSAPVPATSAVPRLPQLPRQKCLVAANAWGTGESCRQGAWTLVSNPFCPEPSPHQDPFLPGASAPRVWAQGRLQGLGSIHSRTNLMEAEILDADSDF
T1 sequence (Q99835 whole entry): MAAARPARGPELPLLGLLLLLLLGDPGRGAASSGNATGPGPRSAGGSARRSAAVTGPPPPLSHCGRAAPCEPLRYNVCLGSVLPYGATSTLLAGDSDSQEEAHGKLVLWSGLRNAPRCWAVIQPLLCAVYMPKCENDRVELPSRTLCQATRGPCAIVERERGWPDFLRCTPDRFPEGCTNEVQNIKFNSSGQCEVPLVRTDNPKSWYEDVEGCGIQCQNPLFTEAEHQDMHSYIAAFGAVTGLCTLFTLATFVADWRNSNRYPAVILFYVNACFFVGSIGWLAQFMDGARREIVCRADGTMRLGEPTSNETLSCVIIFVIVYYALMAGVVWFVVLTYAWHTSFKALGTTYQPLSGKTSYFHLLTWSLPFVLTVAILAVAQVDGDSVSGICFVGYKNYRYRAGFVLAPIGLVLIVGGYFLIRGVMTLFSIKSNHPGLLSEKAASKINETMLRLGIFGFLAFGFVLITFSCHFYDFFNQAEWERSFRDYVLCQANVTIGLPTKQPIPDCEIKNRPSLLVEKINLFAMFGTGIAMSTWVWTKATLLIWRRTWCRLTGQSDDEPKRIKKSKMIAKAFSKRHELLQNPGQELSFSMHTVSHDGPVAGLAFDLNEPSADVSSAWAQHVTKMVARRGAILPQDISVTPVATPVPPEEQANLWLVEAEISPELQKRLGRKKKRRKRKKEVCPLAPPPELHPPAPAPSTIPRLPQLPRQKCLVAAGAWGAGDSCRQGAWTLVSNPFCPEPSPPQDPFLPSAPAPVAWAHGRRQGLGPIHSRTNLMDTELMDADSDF
Sequence of Protein smoothened (Mus musculus) (P56726 whole entry): as the sequence (P56726 whole entry) above

Take `C[C@H]1C(=O)N(c2ccc(Cl)cc2)C(=O)N1Cc1ccc(C2(C(F)(F)F)N=N2)cc1`: in experiment [1], the result was inactive. Further, the inhibition result on Protein smoothened [2] was “inactive”.

Turning to `C[C@H]1C(=O)N(Cc2ccc(Cl)cc2)C(=O)N1Cc1ccccc1`, on Protein smoothened [3], the half-maximal inhibitory concentration (IC50) worked out at 8100 nM.

Consider `C[C@H]1C(=O)N(c2ccc(Cl)cc2)C(=O)N1CC1CCCCC1`, for which, on Protein smoothened [3], the IC50 came to 383 nM.

For `C[C@H]1C(=O)N(c2ccc(Cl)cc2)C(=O)N1c1ccccc1`, the IC50 on Protein smoothened [3] stood at 547 nM.

Turning to `C[C@H]1C(=O)N(c2ccc(Cl)cc2)C(=O)N1Cc1ccccc1`, the IC50 at Protein smoothened [3] amounted to 59 nM. The same compound showed a Ki on Protein smoothened [2] of 33 nM.

In the case of `C[C@H]1C(=O)N(c2ccc(Cl)cc2)C(=O)N1Cc1ccc(N=[N+]=[N-])cc1`, the result at Protein smoothened [4], at Protein smoothened [5], on Protein smoothened [6], at Protein smoothened [7], at Protein smoothened [8] and on Protein smoothened [9] was Active. Also, on Protein smoothened [10], the result was Active. Also, on Protein smoothened [3], the IC50 amounted to 3 nM. On Protein smoothened [2], this compound displayed an inhibitory constant (Ki) of 45 nM.

As for `C[C@H]1CN(c2ccc(Cl)cc2)C(=O)N1Cc1ccccc1`, the half-inhibitory concentration (IC50) at Protein smoothened [3] was 4550 nM.

Turning to `C#CCOc1ccc(N2C(=O)[C@H](C)N(Cc3ccc(N=[N+]=[N-])cc3)C2=O)cc1`, on Protein smoothened [3], the IC50 is 31 nM. The same compound registered a Ki on Protein smoothened [2] of 28 nM. Also, the result at Protein smoothened [11] was Active.

For `C[C@H]1C(=O)N(c2ccc(Cl)cc2)C(=S)N1Cc1ccccc1`, at Protein smoothened [3], the IC50 is 3790 nM.

As for `FC(F)(F)Oc1ccc(-c2ccnc(Nc3ccc4[nH]ncc4c3)n2)cc1`, the inhibition constant (Ki) on Protein smoothened [2] was 30 nM.

Consider `C[C@H]1C(=O)N(c2ccc(N=[N+]=[N-])cc2)C(=O)N1Cc1ccccc1`, for which the result on Protein smoothened [12], on Protein smoothened [13], on Protein smoothened [14], on Protein smoothened [15] and on Protein smoothened [16] was Active. Moreover, the concentration for half-maximal inhibition (IC50) on Protein smoothened [3] came to 58 nM. The Ki on Protein smoothened [2] came to 55 nM.

With `C[C@H]1C(=O)N(c2ccc(Cl)cc2)C(=O)N1Cc1c(F)c(F)c(F)c(F)c1F`, the 50% inhibitory concentration (IC50) on Protein smoothened [3] came to 7380 nM.

Regarding `C[C@H]1C(=O)N(c2c(F)c(F)c(F)c(F)c2F)C(=O)N1Cc1ccccc1`, the IC50 at Protein smoothened [3] was 1530 nM.

With `C[C@H]1C(=O)N(C2CCCCC2)C(=O)N1Cc1ccccc1`, on Protein smoothened [3], the IC50 was 8010 nM.

With `C[C@H]1C(=O)N(c2ccc(Cl)cc2)C(=O)N1CCc1ccccc1`, the IC50 at Protein smoothened [3] turned out to be 92 nM.
